Values after ≈ are worked out from the molar mass of the structure shown.
Key:
[1] = Lipophilicity, log D of the compound at pH 7.4 by RP-HPLC analysis; format: physicochemical; conditions: buffer
[2] = Thermodynamic solubility of the compound at pH 6.5; format: physicochemical; conditions: buffer, read-out: Therm_solubility
[3] = Apparent permeability in RRCK cells; format: ADME, cell-based, Canis lupus familiaris, MDCKII-LE; conditions: dog, MDCK
[4] = Volume of distribution at steady state in Beagle dog at 1 mg/kg, iv or 3 mg/kg, po via gavage by LC-MS/MS analysis; format: ADME, organism-based, Canis lupus familiaris; conditions: in vivo, read-out: Vdss
[5] = Volume of distribution at steady state in Wistar Han rat at 1 mg/kg, iv or 3 mg/kg, po via gavage by LC-MS/MS analysis; format: ADME, organism-based; conditions: in vivo, read-out: Vdss
[6] = Volume of distribution at steady state in Balb/c mouse at 1 mg/kg, iv or 30 mg/kg, po via gavage by LC-MS/MS analysis; format: ADME, organism-based; conditions: in vivo, read-out: Vdss
[7] = Oral bioavailability in Balb/c mouse at 30 mg/kg administered via spray-dried dispersion by LC-MS/MS analysis; format: ADME, organism-based; conditions: in vivo
[8] = Oral bioavailability in Wistar Han rat at 3 mg/kg administered as crystalline solid by LC-MS/MS analysis; format: ADME, organism-based; conditions: in vivo
[9] = Oral bioavailability in Wistar Han rat at 3 mg/kg administered via spray-dried dispersion by LC-MS/MS analysis; format: ADME, organism-based; conditions: in vivo
[10] = Oral bioavailability in Beagle dog at 3 mg/kg administered via spray-dried dispersion measured over 24 hrs by LC-MS/MS analysis; format: ADME, organism-based, Canis lupus familiaris; conditions: in vivo

SMILES | logD [1] | other results
CC(C)C(=O)N1CCC(c2cn(C)c3ncc(NC(=O)c4cccc(C#N)c4)c(C(C)C)c23)CC1 | 2.6 | 
COc1c(NC(=O)c2cccc(C#N)c2)cnc2c1c(C1CCN(C(=O)C(C)C)CC1)cn2C | 2 | 
Cc1noc(C)c1C(=O)N1CCC(c2cn(C)c3ncc(NC(=O)c4cccc(C#N)c4)c(C)c23)CC1 | 2 | 
Cc1c(NC(=O)c2ccc(Cl)c(C#N)c2)cnc2c1c(C1CCN(C(=O)C(C)C)CC1)cn2C | 3.6 | 
Cc1c(NC(=O)c2cccc(C#N)c2)cnc2c1c(C1CCN(C(=O)CC(C)C)CC1)cn2C | 2.5 | 
Cc1c(NC(=O)c2ccc(F)c(C#N)c2)cnc2c1c(C1CCN(C(=O)C(C)C)CC1)cn2C | 2.3 | 
Cc1c(NC(=O)c2cccc(C#N)c2)cnc2c1c(C1CCN(C(=O)C(C)C)CC1)cn2C | 2 | 
Cc1c(NC(=O)c2cccc(C#N)c2)cnc2c1c(C1CCN(C(=O)CC3CC3)CC1)cn2C | 2.4 | 
CC(C)C(=O)N1CCC(c2cn(C)c3ncc(NC(=O)c4cccc(C#N)c4)c(C(F)(F)F)c23)CC1 | 3.7 | solubility thermodynamic [2]: 1 µM (≈ 0.498 µg/mL); Papp [3]: 13.2 ×10⁻⁶ cm/s; Vd [4]: 1.5 L/kg; Vd [5]: 1.4 L/kg; Vd [6]: 0.8 L/kg; bioavailability [7]: 30%; bioavailability [8]: 21%; bioavailability [9]: 83%; bioavailability [10]: 73%
Cc1cccc(F)c1C(=O)N1CCC(c2cn(C)c3ncc(NC(=O)c4cccc(C#N)c4)c(C)c23)CC1 | 3.1 | 
Cc1ccc(C(=O)Nc2cnc3c(c(C4CCN(C(=O)C(C)C)CC4)cn3C)c2C)cc1C#N | 2.3 | 
CCC(=O)N1CCC(c2cn(C)c3ncc(NC(=O)c4cccc(C#N)c4)c(C)c23)CC1 | 2 | 
CC(=O)N1CCC(c2cn(C)c3ncc(NC(=O)c4cccc(C#N)c4)c(C)c23)CC1 | 1.6 | 
Cc1c(NC(=O)c2cccc(C#N)c2)cnc2c1c(C1CCN(C(=O)C3CCOC3)CC1)cn2C (centres undefined) | 1.6 | 
COc1ccc(C(=O)Nc2cnc3c(c(C4CCN(C(=O)C(C)C)CC4)cn3C)c2C)cc1C#N | 2.4 | 

Now from value to compound, other results behind:

logD [1] | SMILES | other results
2.9 | Cc1c(NC(=O)c2cccc(C#N)c2)cnc2c1c(C1CCN(C(=O)C3CCCC3)CC1)cn2C | 
4.2 | Cn1cc(C2CCN(C(=O)C3CCCC3)CC2)c2nc(NC(=O)c3cc(C#N)ccn3)ccc21 | 
3.7 | Cn1cc(C2CCN(C(=O)C3CCCC3)CC2)c2cc(NC(=O)c3cc(C#N)ccn3)cnc21 | 
4.4 | Cn1cc(C2CCN(C(=O)C3CCCC3)CC2)c2cc(NC(=O)c3cccc(C#N)c3)ccc21 | 
4 | Cc1c(NC(=O)c2cccc(C#N)c2)ccc2c1c(C1CCN(C(=O)C3CCCC3)CC1)cn2C | 
2.3 | Cc1c(NC(=O)c2cccc(C#N)c2)cnc2c1c(C1CCN(C(=O)C3CC3)CC1)cn2C | 
4.3 | Cn1cc(C2CCN(C(=O)C3CCCC3)CC2)c2cc(NC(=O)c3cc(C#N)ccn3)ccc21 | 
3.8 | Cn1cc(C2CCN(C(=O)C3CCCC3)CC2)c2cc(NC(=O)c3cccc(C#N)c3)cnc21 | 
2.6 | Cc1c(NC(=O)c2cccc(C#N)c2)cnc2c1c(C1CCN(C(=O)C3CCC3)CC1)cn2C | 
3.9 | Cc1c(NC(=O)c2cccc(C#N)c2)cnc2c1c(C1CCN(C(=O)C3CCCCC3)CC1)cn2C | 

From ChEMBL document CHEMBL4265880, “Discovery of 3-Cyano- N-(3-(1-isobutyrylpiperidin-4-yl)-1-methyl-4-(trifluoromethyl)-1 H-pyrrolo[2,3- b]pyridin-5-yl)benzamide: A Potent, Selective, and Orally Bioavailable Retinoic Acid Receptor-Related Orphan Receptor C2 Inverse Agonist” (J Med Chem, 2018)
